Where two headings read alike, the source gives them in different places.
Tests used:
primary human T-cells [1] = test system: primary human T-cells
hDGKzeta(1-928)-N-His = hDGKzeta(1-928)-N-His (Homo sapiens (Human), UniProt Q13574); experiment: DGKzeta ADP Glo assay (in vitro DGK inhibition); assay type: biochemical; conditions: DLG 125 uM, ATP 50 μM, DGK ζ 2 nM, 1 hour reaction
Description: (§1) DGK α and ζ kinase use ATP to phosphorylate the substrate 1,2-dilauroyl-sn-glycerol (DLG, incorporated in the liposomes). ATP is converted to ADP as a result of this enzymatic reaction. After the kinase reaction, an ATP-depletion reagent is added to terminate the kinase reaction and deplete any remaining ATP, leaving only ADP. Second, a detection reagent is added to simultaneously convert ADP to ATP and allow the newly synthesized ATP to be converted to light using a coupled luciferase/luciferin reaction.
(§2) Purification of both enzymes was performed as previously described by Takahashi et al., PeerJ, 2018 (Takahashi, D.; Sakane, F. Expression and purification of human diacylglycerol kinase alpha from baculovirus-infected insect cells for structural studies. PeerJ 2018, 6, No. e5449).
(§3) A concentrated liposome solution was prepared in assay buffer without DTT and BSA: 2 mM of DLG in 21 mM of total liposome (2 mM DLG/8 mM PS/11 mM PC). […] The reactions were started by addition of DGK α and ζ kinases at 4 nM and 2 nM final concentrations, respectively. After 1 hour reaction, the amount of ADP formed was detected with the ADP-Glo kinase assay (Promega) according to the manufacturer instructions. Compounds were added in 11-points dose response, starting at […], 1:3 dilutions, with a final DMSO concentration of 2%. The multidrop combi was used as a liquid handler and luminescence was read with 0.5 s by the envision reader (PE).

primary human T-cells [2] = experiment: Proliferation assay after 5 days (CellTiter-Glo, CD3 stimulation; PBS counter screen); assay type: cell-based; conditions: CD3 stimulation; for Emax proliferation (% activation) / Emax: 5 days, normalized to reference compound A1 as stimulator control = 100%, DMSO neutral control; for EC50: primary human T-cells, CellTiter-Glo after 5 days, EC50 of fitted sigmoidal curve, read-out: Tcell Proliferation CD3 EC50; for Emax: read-out: Emax proliferation (% activation)
Outline: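 Primary human T-cells, with or without CD3 stimulation, exposed to compounds for 5 days; cell number read as ATP by CellTiter-Glo 2.0 luminescence after 45 min equilibration and 15 min reagent incubation at room temperature. Compounds activating unstimulated cells or reducing viability were flagged.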

hDGKalpha(1-735)-N-His = hDGKalpha(1-735)-N-His (Homo sapiens (Human), UniProt P23743); experiment: DGKalpha ADP Glo assay (in vitro DGK inhibition); assay type: biochemical; conditions: DLG 125 uM, ATP 25 μM, DGK α 4 nM, 1 hour reaction
hDGKalpha(1-735)-N-His, sequence (P23743 whole entry): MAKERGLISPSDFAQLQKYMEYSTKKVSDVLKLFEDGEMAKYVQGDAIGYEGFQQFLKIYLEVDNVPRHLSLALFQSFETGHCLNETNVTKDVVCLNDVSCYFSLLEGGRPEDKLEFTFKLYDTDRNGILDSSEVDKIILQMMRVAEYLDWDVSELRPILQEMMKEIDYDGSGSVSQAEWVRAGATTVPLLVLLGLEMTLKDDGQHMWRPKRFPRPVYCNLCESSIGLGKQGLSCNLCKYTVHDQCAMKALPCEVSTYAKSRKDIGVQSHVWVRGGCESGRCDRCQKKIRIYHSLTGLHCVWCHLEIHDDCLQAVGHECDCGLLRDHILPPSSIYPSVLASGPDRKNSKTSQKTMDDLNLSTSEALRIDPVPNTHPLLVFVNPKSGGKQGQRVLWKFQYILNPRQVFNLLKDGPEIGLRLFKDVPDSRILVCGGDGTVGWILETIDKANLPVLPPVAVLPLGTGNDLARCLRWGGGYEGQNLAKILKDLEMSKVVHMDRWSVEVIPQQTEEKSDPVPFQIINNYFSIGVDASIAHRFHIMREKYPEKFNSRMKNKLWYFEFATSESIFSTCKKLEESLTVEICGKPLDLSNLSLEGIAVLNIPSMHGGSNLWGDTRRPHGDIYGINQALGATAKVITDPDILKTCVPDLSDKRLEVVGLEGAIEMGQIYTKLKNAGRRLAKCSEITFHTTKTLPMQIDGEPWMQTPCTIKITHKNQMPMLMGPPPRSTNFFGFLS
Description: as §1, §2, §3

hDGKzeta(1-928)-N-His, sequence (Q13574 whole entry): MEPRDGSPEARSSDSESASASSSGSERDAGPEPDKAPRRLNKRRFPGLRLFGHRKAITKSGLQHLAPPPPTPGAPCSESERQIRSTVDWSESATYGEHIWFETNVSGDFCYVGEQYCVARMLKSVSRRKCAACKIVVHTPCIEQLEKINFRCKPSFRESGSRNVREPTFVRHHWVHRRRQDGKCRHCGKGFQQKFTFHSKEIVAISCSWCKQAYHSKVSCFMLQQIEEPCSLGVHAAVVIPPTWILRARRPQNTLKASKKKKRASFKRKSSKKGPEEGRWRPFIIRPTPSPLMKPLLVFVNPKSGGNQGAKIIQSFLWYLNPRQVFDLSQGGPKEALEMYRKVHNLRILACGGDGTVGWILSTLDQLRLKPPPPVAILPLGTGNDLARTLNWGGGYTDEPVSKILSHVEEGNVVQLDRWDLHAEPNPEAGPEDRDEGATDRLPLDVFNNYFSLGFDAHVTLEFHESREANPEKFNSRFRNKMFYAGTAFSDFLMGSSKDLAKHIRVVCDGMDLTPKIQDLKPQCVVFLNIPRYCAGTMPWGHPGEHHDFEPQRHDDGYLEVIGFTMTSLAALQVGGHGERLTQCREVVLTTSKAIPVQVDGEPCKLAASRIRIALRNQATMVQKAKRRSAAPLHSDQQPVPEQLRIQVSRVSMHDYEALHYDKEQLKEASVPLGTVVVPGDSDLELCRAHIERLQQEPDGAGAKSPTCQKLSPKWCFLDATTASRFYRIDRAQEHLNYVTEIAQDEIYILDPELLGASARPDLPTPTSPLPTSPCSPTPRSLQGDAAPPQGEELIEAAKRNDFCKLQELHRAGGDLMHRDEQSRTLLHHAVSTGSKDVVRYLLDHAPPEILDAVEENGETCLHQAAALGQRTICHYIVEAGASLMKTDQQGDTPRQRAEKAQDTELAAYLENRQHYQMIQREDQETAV

SMILES	EC50 (primary human T-cells [1]) [nM]	IC50 (hDGKzeta(1-928)-N-His) [nM]	IC50 (hDGKalpha(1-735)-N-His) [nM]	Emax proliferation (% activation) (primary human T-cells [2])	EC50 (primary human T-cells [2]) [nM]	Emax (primary human T-cells [2]; Homo sapiens, T-cell, 120 h) [%]	EC50 (primary human T-cells [2]; Homo sapiens, T-cell, 120 h) [nM]
N[C@H]1C[S+]([O-])c2cc(F)c(-c3noc(N4CCOC(C(F)(F)F)C4)n3)cc2N(Cc2ccc(Cl)cc2)C1=O (single isomer, unassigned; epimer a) [Example 213]	3270	52	2140	222	1390		
N[C@H]1C[S+]([O-])c2cc(F)c(-c3noc(N4CCOC5CC54)n3)cc2N(Cc2ccc(Cl)cc2)C1=O (single isomer, unassigned; epimer b) [Example 208]	5250	147	2640	106	5310		
N[C@H]1C[S+]([O-])c2cc(F)c(-c3noc(N4CCOC(C(F)(F)F)C4)n3)cc2N(Cc2ccc(Cl)cc2)C1=O (single isomer, unassigned; epimer b) [Example 212]	2950	46	975	178	338		
CC(C)(CO)n1nnc(-c2cc3c(cc2F)S(=O)(=O)C[C@H](N)C(=O)N3Cc2ccc(Cl)cc2)n1 [Example 28, (3R)-3-amino-5-[(4-chlorophenyl)methyl]-8-fluoro-7-[2-(2-hydroxy-1,1-dimethyl-ethyl)tetrazol-5-yl]-1,1-dioxo-2,3-dihydro-1λ^6,5-benzothiazepin-4-one]	1110	672	513			129	1260
CC(C)Oc1ccc(CN2C(=O)[C@@H](N)CS(=O)(=O)c3cc(F)c(-c4noc(C(N)C(F)(F)F)n4)cc32)cc1 (stereo partly drawn) [Example 48, (3R)-3-amino-7-[5-(1-amino-2,2,2-trifluoro-ethyl)-1,2,4-oxadiazol-3-yl]-8-fluoro-5-[(4-isopropoxyphenyl)methyl]-1,1-dioxo-2,3-dihydro-1λ^6,5-benzothiazepin-4-one]	2330	114	403			248	3190
CC1(C)CN(c2nc(-c3cc4c(cc3F)S(=O)(=O)C[C@H](N)C(=O)N4Cc3ccc(Cl)cc3)no2)CCO1 [Example 205, (3R)-3-amino-5-[(4-chlorophenyl)methyl]-7-[5-(2,2-dimethylmorpholin-4-yl)-1,2,4-oxadiazol-3-yl]-8-fluoro-1,1-dioxo-2,3-dihydro-16,5-benzothiazepin-4-one]	1050	147	299			119	2120
CC(C)Oc1ccc(CN2C(=O)[C@@H](N)CS(=O)(=O)c3cc(F)c(-c4noc(N5CCOC6(CC6)C5)n4)cc32)cn1 [Example 214, (3R)-3-amino-8-fluoro-5-[(6-isopropoxy-3-pyridyl)methyl]-7-[5-(4-oxa-7-azaspiro[2.5]octan-7-yl)-1,2,4-oxadiazol-3-yl]-1,1-dioxo-2,3-dihydro-1λ^6,5-benzothiazepin-4-one]	1500	100	214			275	2140
CC(C)Oc1ccc(CN2C(=O)[C@@H](N)CS(=O)(=O)c3cc(F)c(-c4noc(N5CCOC6(CC6)C5)n4)cc32)nc1 [Example 215]	5360	886	662			153	2170
CC(C)(C)c1nnc(-c2cc3c(cc2F)S(=O)(=O)C[C@H](N)C(=O)N3Cc2ccc(C(C)(C)C#N)cc2)o1 [Example 244, 2-methyl-2-[4-[[(3R)-3-amino-7-(5-tert-butyl-1,3,4-oxadiazol-2-yl)-8-fluoro-1,1,4-trioxo-2,3-dihydro-1λ^6,5-benzothiazepin-5-yl]methyl]phenyl]propanenitrile]	236	1100	836			102	137
CC(C)(C)c1nnc(-c2cc3c(cc2F)S(=O)(=O)C[C@H](N)C(=O)N3Cc2ccc(OC3CCCC3)cc2)o1 [Example 253, (3R)-3-amino-7-(5-tert-butyl-1,3,4-oxadiazol-2-yl)-5-[[4-(cyclopentoxy)phenyl]methyl]-8-fluoro-1,1-dioxo-2,3-dihydro-1λ^6,5-benzothiazepin-4-one]	< 15.1	105	198			116	40.3

More lines, main results first:

EC50 (primary human T-cells [1]) [nM]	IC50 (hDGKzeta(1-928)-N-His) [nM]	IC50 (hDGKalpha(1-735)-N-His) [nM]	SMILES	Emax proliferation (% activation) (primary human T-cells [2])	EC50 (primary human T-cells [2]) [nM]	Emax (primary human T-cells [2]; Homo sapiens, T-cell, 120 h) [%]	EC50 (primary human T-cells [2]; Homo sapiens, T-cell, 120 h) [nM]
126	494	528	COC(F)(c1nc(-c2cc3c(cc2F)S(=O)(=O)C[C@H](N)C(=O)N3Cc2ccc(Cl)cc2)no1)C(F)(F)F (stereo partly drawn) [Example 292, (3R)-3-amino-5-[(4-chlorophenyl)methyl]-8-fluoro-1,1-dioxo-7-[5-(1,2,2,2-tetrafluoro-1-methoxy-ethyl)-1,2,4-oxadiazol-3-yl]-2,3-dihydro-1λ^6,5-benzothiazepin-4-one]			179	31.9
3310	1200	1150	CC(C)(C)NC(=O)c1nc(-c2cc3c(cc2F)S(=O)(=O)C[C@H](N)C(=O)N3Cc2ccc(Cl)cc2)no1 [Example 293, 3-[(3R)-3-amino-5-[(4-chlorophenyl)methyl]-8-fluoro-1,1,4-trioxo-2,3-dihydro-1λ^6,5-benzothiazepin-7-yl]-N-tert-butyl-1,2,4-oxadiazole-5-carboxamide]			92	2070
169	357	373	CC(N)(c1nc(-c2cc3c(cc2F)S(=O)(=O)C[C@H](N)C(=O)N3Cc2ccc(Cl)cc2)no1)C(F)(F)F (stereo partly drawn) [Example 297, (3R)-3-amino-7-[5-(1-amino-2,2,2-trifluoro-1-methyl-ethyl)-1,2,4-oxadiazol-3-yl]-5-[(4-chlorophenyl)methyl]-8-fluoro-1,1-dioxo-2,3-dihydro-1λ^6,5-benzothiazepin-4-one]			157	219
243	481	3940	N[C@H]1CS(=O)(=O)c2cc(F)c(-c3noc(C(N)(c4ccc(F)cc4)C(F)(F)F)n3)cc2N(Cc2ccc(Cl)cc2)C1=O (stereo partly drawn) [Example 300, (3R)-3-amino-7-[5-[1-amino-2,2,2-trifluoro-1-(4-fluorophenyl)ethyl]-1,2,4-oxadiazol-3-yl]-5-[(4-chlorophenyl)methyl]-8-fluoro-1,1-dioxo-2,3-dihydro-1λ^6,5-benzothiazepin-4-one]			193	127
5040	69	43700	Cc1ccc(S(C)(=O)=O)cc1-c1nc(-c2cc3c(cc2F)S(=O)(=O)C[C@H](N)C(=O)N3Cc2ccc(Cl)cc2)no1 [Example 311, (3R)-3-amino-5-[(4-chlorophenyl)methyl]-8-fluoro-7-[5-(2-methyl-5-methylsulfonyl-phenyl)-1,2,4-oxadiazol-3-yl]-1,1-dioxo-2,3-dihydro-1λ^6,5-benzothiazepin-4-one]			67	1090
1120	130	1660	Cc1cc(C)c(-c2nc(-c3cc4c(cc3F)S(=O)(=O)C[C@H](N)C(=O)N4Cc3ccc(Cl)cc3)no2)cn1 [Example 313, (3R)-3-amino-5-[(4-chlorophenyl)methyl]-7-[5-(4,6-dimethyl-3-pyridyl)-1,2,4-oxadiazol-3-yl]-8-fluoro-1,1-dioxo-2,3-dihydro-1λ^6,5-benzothiazepin-4-one]			191	375
	207	343	CC(C)Oc1ccc(CN2C(=O)[C@@H](N)CS(=O)(=O)c3cc(F)c(-c4noc(C5CN(C)CC(F)(F)C5)n4)cc32)cc1 (stereo partly drawn) [Example 345, (3R)-3-amino-7-[5-(5,5-difluoro-1-methyl-3-piperidyl)-1,2,4-oxadiazol-3-yl]-8-fluoro-5-[(4-isopropoxyphenyl)methyl]-1,1-dioxo-2,3-dihydro-1λ^6,5-benzothiazepin-4-one]			152	
	795	2870	N[C@H]1CS(=O)(=O)c2ccc(-c3nnc(N4CCOC(C(F)F)C4)o3)cc2N(Cc2ccc(Cl)cc2)C1=O (stereo partly drawn) [Example 409, (3R)-3-amino-5-[(4-chlorophenyl)methyl]-7-[5-[2-(difluoromethyl)morpholin-4-yl]-1,3,4-oxadiazol-2-yl]-1,1-dioxo-2,3-dihydro-1λ^6,5-benzothiazepin-4-one]			95	3880
